Structures can show the parent of a compound that is named as a salt.
Key:
alpha-1 receptors = assay: Inhibition of binding of [3H]Prazosine to rat alpha-1 receptors; details: [3H]Prazosine 0.25 nM, membranes from rat brain
Experimental: Inhibition of Binding of [^3H]Prazosine to Rat Alpha-1 Receptors
By this method the inhibition by drugs of the binding of [^3H]Prazosine (0.25 nM) to alpha-1 receptors in membranes from rat brain is determined in vitro. Method modified from Hyttel et al. J. Neurochem. 1985, 44, 1615–1622.

[1] = biological target: T1, human cloned dopamine D4.2 receptors (Homo sapiens, UniProt P21917, DEL265-296); assay: Inhibition of the binding of [3H]YM-09151-2 to human dopamine D4 receptors; details: [3H]YM-09151-2 0.06 nM, membranes of CHO-cells; read-out: D4-bind. IC50
T1 construct: expressed in transfected cells; host or cells: CHO cells
T1 sequence (P21917 with tags, fused parts or gaps DEL265-296): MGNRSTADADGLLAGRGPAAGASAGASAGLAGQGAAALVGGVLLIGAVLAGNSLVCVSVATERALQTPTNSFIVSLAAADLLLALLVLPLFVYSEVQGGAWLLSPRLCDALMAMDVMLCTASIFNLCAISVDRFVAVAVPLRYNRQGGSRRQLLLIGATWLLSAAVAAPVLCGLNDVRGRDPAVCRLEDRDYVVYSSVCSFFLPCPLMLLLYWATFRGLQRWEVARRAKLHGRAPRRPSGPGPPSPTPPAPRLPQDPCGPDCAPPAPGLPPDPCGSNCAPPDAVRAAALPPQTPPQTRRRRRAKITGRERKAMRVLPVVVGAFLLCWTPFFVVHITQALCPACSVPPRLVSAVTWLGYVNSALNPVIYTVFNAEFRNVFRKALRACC
Experimental: Inhibition of the Binding of [^3H]YM-09151-2 to Human Dopamine D4 Receptors
By this method the inhibition by drugs of the binding of [^3H]YM-09151–2 (0.06 nM) to membranes of human cloned dopamine D4.2 receptors expressed in CHO-cells is determined in vitro. Method modified from NEN Life Science Products, Inc., technical data certificate PC2533-10/96.

[2] = biological target: T2, human cloned dopamine D3 receptors (Homo sapiens, UniProt P35462); assay: Inhibition of the binding of [3H]Spiperone to human D3 receptors; details: [3H]Spiperone 0.3 nM, membranes of CHO-cells; for IC50: read-out: D3-bind. IC50; for inhibition at 0.1 µM: read-out: D3-bind. % inhibition of binding at 100 nM
T2 construct: expressed in transfected cells; host or cells: CHO cells
T2 sequence (P35462 whole entry): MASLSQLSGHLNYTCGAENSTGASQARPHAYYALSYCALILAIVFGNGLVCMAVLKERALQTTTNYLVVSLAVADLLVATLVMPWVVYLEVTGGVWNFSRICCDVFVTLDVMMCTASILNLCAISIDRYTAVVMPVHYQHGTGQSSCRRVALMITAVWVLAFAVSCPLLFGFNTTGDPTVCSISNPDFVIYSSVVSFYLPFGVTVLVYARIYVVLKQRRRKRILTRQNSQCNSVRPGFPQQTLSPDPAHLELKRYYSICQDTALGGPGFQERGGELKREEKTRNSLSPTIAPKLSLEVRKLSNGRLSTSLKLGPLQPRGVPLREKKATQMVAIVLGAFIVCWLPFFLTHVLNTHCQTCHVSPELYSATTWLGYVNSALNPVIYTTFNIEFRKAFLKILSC
Experimental: Inhibition of the Binding of [^3H]Spiperone to Human D3 Receptors
By this method the inhibition by drugs of the binding [^3H]Spiperone (0.3 nM) to membranes of human cloned dopamine D3 receptors expressed in CHO-cells is determined in vitro. Method modified from MacKenzie et al. Eur. J. Pharm.-Mol. Pharm. Sec. 1994, 266, 79–85.

| Alpha-1 % inhibition of binding at 100 nM (alpha-1 receptors) [%] | IC50 [1] [nM] | D3-bind. % inhibition of binding at 100 nM ([2]; 100 nM) [%] | melting point [°C] | IC50 (alpha-1 receptors) [nM] | IC50 [2] [nM] | inhibition at 0.1 µM ([2]; 100 nM) [%] | Molecule |
| --- | --- | --- | --- | --- | --- | --- | --- |
| 34 | 26 | 95 |  |  |  |  | 5-[4-(2,3-Dichloro-phenyl)-piperazin-1-yl]-1-(3,4-dihydro-1H-isoquinolin-2-yl)propan-1-one [Compound 7f] |
|  |  |  | 219 to 228 |  |  |  | Clc1cccc(N2CCN(CCCCCN3CCc4ccccc43)CC2)c1Cl (as salt: hydrochloride) [Compound 2c, 1-{5-[4-(2,3-Dichlorophenyl)piperazin-1-yl]pentyl}-2,3-dihydro-1H-indole] |
|  |  |  | 234 to 235 |  |  |  | O=C1CCc2ccccc2N1CCCCN1CCN(c2cccc(Cl)c2Cl)CC1 (as salt: hydrochloride) [Compound 6, 1-{4-[4-(2,3-Dichlorophenyl)piperazin-1-yl]butyl}-3,4-dihydroquinolin-2(1H)-one] |
|  | 3.3 |  |  | 59 | 100 |  | O=C(CCN1CCN(c2cccc(Cl)c2Cl)CC1)N1CCc2ccccc21 [Compound 1a, 3-[4-(2,3-Dichlorophenyl)piperazin-1-yl]-1-(2,3-dihydro-1H-indol-1-yl)propan-1-one] |
|  | 2.8 |  |  | 1100 | 3 |  | O=C(CCCN1CCN(c2cccc(Cl)c2Cl)CC1)N1CCc2ccccc21 [Compound 1b, 4-[4-(2,3-Dichlorophenyl)piperazin-1-yl]-1-(2,3-dihydro-1H-indol-1-yl)butan-1-one] |
|  | 39 |  |  | 160 | 10 |  | O=C(CCCCN1CCN(c2cccc(Cl)c2Cl)CC1)N1CCc2ccccc21 [Compound 1c, 5-[4-(2,3-Dichlorophenyl)piperazin-1-yl]-1-(2,3-dihydro-1H-indol-1-yl)pentan-1-one] |
|  | 0.92 |  |  | 97 | 20 |  | O=C(CCCN1CCN(c2ccccc2Cl)CC1)N1CCc2ccccc21 [Compound 1d, 4-[4-(2-Chlorophenyl)piperazin-1-yl]-1-(2,3-dihydro-1H-indol-1-yl)butan-1-one] |
|  | 2.1 |  |  | 17 | 50 |  | O=C(CCCN1CCN(c2cccc(Cl)c2)CC1)N1CCc2ccccc21 [Compound 1e, 4-[4-(3-Chlorophenyl)piperazin-1-yl]-1-(2,3-dihydro-1H-indol-1-yl)butan-1-one] |
|  | 1.8 |  |  | 68 | 31 |  | Clc1cccc(N2CCN(CCCN3CCc4ccccc43)CC2)c1Cl [Compound 2a, 1-{3-[4-(2,3-Dichlorophenyl)piperazin-1-yl]propyl}-2,3-dihydro-1H-indole] |
| 10 | 12 |  |  |  | 3.1 |  | Clc1cccc(N2CCN(CCCCN3CCc4ccccc43)CC2)c1Cl [Compound 2b, 1-{4-[4-(2,3-Dichlorophenyl)piperazin-1-yl]butyl}-2,3-dihydro-1H-indole] |
|  | 18 |  |  | 190 | 22 |  | Clc1cccc(N2CCN(CCCCCN3CCc4ccccc43)CC2)c1Cl [Compound 2c, 1-{5-[4-(2,3-Dichlorophenyl)piperazin-1-yl]pentyl}-2,3-dihydro-1H-indole] |
|  | 1.2 |  |  | 31 | 4 |  | Clc1ccccc1N1CCN(CCCCN2CCc3ccccc32)CC1 [Compound 2d, 1-{4-[4-(2-Chlorophenyl)piperazin-1-yl]butyl}-2,3-dihydro-1H-indole] |
| −3 | 11 |  |  |  | 6.8 |  | Clc1cccc(N2CCN(CCCCC3CCc4ccccc43)CC2)c1Cl (centres unmarked) [Compound 3, 1-(2,3-Dichlorophenyl)-4-[4-(indan-1-yl)butyl]piperazine] |
|  | 500 |  |  | 4800 | 40 |  | Clc1ccc2c(SCCN3CCN(c4cccc(Cl)c4Cl)CC3)c[nH]c2c1 [Compound 4, 6-Chloro-3-{2-[4-(2,3-dichlorophenyl)piperazin-1-yl]ethylsulfanyl}-1H-indole] |
|  | 14 |  |  | 570 | 1.1 |  | Clc1cccc(N2CCN(CCCCc3c[nH]c4ccccc34)CC2)c1Cl [Compound 5b, 3-{4-[4-(2,3-Dichlorophenyl)piperazin-1-yl]butyl}-1H-indole] |
|  | 3.9 |  |  | 960 | 6.8 |  | Fc1ccc2[nH]cc(CCCN3CCN(c4cccc(Cl)c4Cl)CC3)c2c1 [Compound 5c, 3-{3-[4-(2,3-Dichlorophenyl)piperazin-1-yl]propyl}-5-fluoro-1H-indole] |
|  | 8.6 |  |  | 720 | 1 |  | Fc1ccc2[nH]cc(CCCCN3CCN(c4cccc(Cl)c4Cl)CC3)c2c1 [Compound 5d, 3-{4-[4-(2,3-Dichlorophenyl)piperazin-1-yl]butyl}-5-fluoro-1H-indole] |
|  | 27 |  |  | 470 |  | 93 | Clc1ccc2c(CCCN3CCN(c4cccc(Cl)c4Cl)CC3)c[nH]c2c1 [Compound 5e, 6-Chloro-3-{3-[4-(2,3-dichlorophenyl)piperazin-1-yl]propyl}-1H-indole] |
|  | 16 |  |  | 43 | 1.8 |  | O=C1CCc2ccccc2N1CCCCN1CCN(c2cccc(Cl)c2Cl)CC1 [Compound 6, 1-{4-[4-(2,3-Dichlorophenyl)piperazin-1-yl]butyl}-3,4-dihydroquinolin-2(1H)-one] |
| 38 | 25 |  |  |  |  | 73 | O=C(CCN1CCN(c2cccc(Cl)c2Cl)CC1)N1CCc2cc(F)ccc21 [Compound 7a, 3-[4-(2,3-Dichlorophenyl)piperazin-1-yl]-1-(5-fluoro-2,3-dihydro-1H-indol-1-yl)propan-1-one] |
| 6 | 53 |  |  |  |  | 65 | O=C(CCCN1CCN(c2cccc(Cl)c2Cl)CC1)N1CCc2cc(F)ccc21 [Compound 7b, 4-[4-(2,3-Dichlorophenyl)piperazin-1-yl]-1-(5-fluoro-2,3-dihydro-1H-indol-1-yl)butan-1-one] |
| 45 | 61 |  |  |  |  | 92 | O=C(CCCCN1CCN(c2cccc(Cl)c2Cl)CC1)N1CCc2cc(F)ccc21 [Compound 7c, 5-[4-(2,3-Dichlorophenyl)piperazin-1-yl]-1-(5-fluoro-2,3-dihydro-1H-indol-1-yl)pentan-1-one] |
| 44 | 6 |  |  |  |  | 85 | O=C(CCN1CCN(c2cccc(Cl)c2Cl)CC1)N1CCc2ccccc2C1 [Compound 7d, 3-[4-(2,3-Dichlorophenyl)piperazin-1-yl]-1-(3,4-dihydro-1H-isoquinolin-2-yl)-propan-1-one] |
| 31 | 10 |  |  |  |  | 94 | O=C(CCCN1CCN(c2cccc(Cl)c2Cl)CC1)N1CCc2ccccc2C1 [Compound 7e] |
| 92 | 8 |  |  |  |  | 73 | O=C(CCN1CCN(c2ccccc2Cl)CC1)N1CCc2ccccc2C1 [Compound 8k, 3-[4-(2-Chlorophenyl)piperazin-1-yl]-1-(3,4-dihydro-1H-isoquinolin-2-yl)-propan-1-one] |
| 74 | 4 |  |  |  |  | 88 | O=C(CCCN1CCN(c2ccccc2Cl)CC1)N1CCc2ccccc2C1 [Compound 8l, 4-[4-(2-Chlorophenyl)piperazin-1-yl]-1-(3,4-dihydro-1H-isoquinolin-2-yl)-butan-1-one] |
| 69 | 9 |  |  |  |  | 92 | O=C(CCCN1CCN(c2ccccc2F)CC1)N1CCc2ccccc2C1 [Compound 9k, 1-(3,4-Dihydro-1H-isoquinolin-2-yl)-4-[4-(2-fluoro-phenyl)-piperazin-1-yl]-butan-1-one] |

| Molecule | Alpha-1 % inhibition of binding at 100 nM (alpha-1 receptors) [%] | IC50 [1] [nM] | D3-bind. % inhibition of binding at 100 nM ([2]; 100 nM) [%] | melting point [°C] | IC50 (alpha-1 receptors) [nM] | IC50 [2] [nM] | inhibition at 0.1 µM ([2]; 100 nM) [%] |
| --- | --- | --- | --- | --- | --- | --- | --- |
| Clc1cccc(N2CCN(CCCCN3CCc4ccccc43)CC2)c1 [Compound 2e, 1-{4-[4-(3-Chlorophenyl)piperazin-1-yl]butyl}-2,3-dihydro-1H-indole] |  | 1.6 |  |  | 40 | 17 |  |
| Clc1cccc(N2CCN(CCCc3c[nH]c4ccccc34)CC2)c1Cl [Compound 5a, 3-{3-[4-(2,3-Dichlorophenyl)piperazin-1-yl]propyl}-1H-indole] |  | 2.2 |  |  | 410 | 2.8 |  |

Reference: patent US7074796B2 (H. Lundbeck A/S, priority 1999, dated 2006)
